Read-outs that look alike come from different tables or passages of the source.
Conditions: for % Dissolution: 200 mg in 900 ml 0.1 N HCl, 37.0°C, 75 rpm
Description: 200mg of cinacalcet HCl of different D50 values was dropped into a vessel containing 900 ml of dissolution medium (0.1 N HCl) at 37.0+/−0.5° C. and stirred at 75 rpm.

- solubility (dissolution) compared with larger particle sizes: much lower solubility
- % Dissolution (D50 = 20 μm, 0 min, D50 = 89 μm after 60 min set to 100%): 0%
- % Dissolution (D50 = 20 μm, 15 min, D50 = 89 μm after 60 min set to 100%): 24%
- % Dissolution (D50 = 20 μm, 30 min, D50 = 89 μm after 60 min set to 100%): 52%
- % Dissolution (D50 = 20 μm, 45 min, D50 = 89 μm after 60 min set to 100%): 74%
- % Dissolution (D50 = 20 μm, 60 min, D50 = 89 μm after 60 min set to 100%): 86%
- % Dissolution (D50 = 82 μm, 0 min, D50 = 89 μm after 60 min set to 100%): 0%
- % Dissolution (D50 = 82 μm, 15 min, D50 = 89 μm after 60 min set to 100%): 90%
- % Dissolution (D50 = 82 μm, 30 min, D50 = 89 μm after 60 min set to 100%): 96%
- % Dissolution (D50 = 82 μm, 45 min, D50 = 89 μm after 60 min set to 100%): 98%
- % Dissolution (D50 = 82 μm, 60 min, D50 = 89 μm after 60 min set to 100%): 98%
- % Dissolution (D50 = 89 μm, 0 min, D50 = 89 μm after 60 min set to 100%): 0%
- % Dissolution (D50 = 89 μm, 15 min, D50 = 89 μm after 60 min set to 100%): 87%
- % Dissolution (D50 = 89 μm, 30 min, D50 = 89 μm after 60 min set to 100%): 98%
- % Dissolution (D50 = 89 μm, 45 min, D50 = 89 μm after 60 min set to 100%): 99%
- % Dissolution (D50 = 89 μm, 60 min, set to 100%): 100%
SMILES: C[C@@H](NCCCc1cccc(C(F)(F)F)c1)c1cccc2ccccc12.Cl [cinacalcet HCl]

From patent US20150306049A1, “IMMEDIATE RELEASE FORMULATIONS OF CINACALCET” (K.H.S. PHARMA HOLDING GMBH, priority 2012, published 2015)
